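Tested at 5 concentrations; 48 h exposure; 96-well plates; endpoints linearly interpolated, else capped at highest concentration. At the TGI there is no net growth.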
Legend:
Experiment in all cases: NCI anticancer screen, dose series, 48 h
CAKI-1 renal = tested on: CAKI-1 renal
SK-MEL-2 melanoma = tested on: SK-MEL-2 melanoma
LOX IMVI melanoma = tested on: LOX IMVI melanoma
BT-549 breast = tested on: BT-549 breast
HCT-15 colon = tested on: HCT-15 colon
KM12 colon = tested on: KM12 colon
HOP-92 NSCLC = tested on: HOP-92 NSCLC
UACC-62 melanoma = tested on: UACC-62 melanoma
HCC-2998 colon = tested on: HCC-2998 colon
MDA-MB-231 breast = tested on: MDA-MB-231 breast
IGROV1 ovarian = tested on: IGROV1 ovarian
OVCAR-5 ovarian = tested on: OVCAR-5 ovarian
MCF7 breast = tested on: MCF7 breast
M14 melanoma = tested on: M14 melanoma
SK-MEL-5 melanoma = tested on: SK-MEL-5 melanoma
SNB-75 CNS = tested on: SNB-75 CNS
K-562 leukemia = tested on: K-562 leukemia
MOLT-4 leukemia = tested on: MOLT-4 leukemia
SNB-19 CNS = tested on: SNB-19 CNS
UACC-257 melanoma = tested on: UACC-257 melanoma
MALME-3M melanoma = tested on: MALME-3M melanoma
SN12C renal = tested on: SN12C renal
NCI-H460 lung = tested on: NCI-H460 lung
NCI-H226 lung = tested on: NCI-H226 lung
HCT-116 colon = tested on: HCT-116 colon
786-0 renal = tested on: 786-0 renal
SF-268 CNS = tested on: SF-268 CNS
MDA-MB-435 = tested on: MDA-MB-435
NCI-H23 lung = tested on: NCI-H23 lung
EKVX NSCLC = tested on: EKVX NSCLC
MDA-N = tested on: MDA-N
HOP-62 NSCLC = tested on: HOP-62 NSCLC
HT29 colon = tested on: HT29 colon
SK-OV-3 ovarian = tested on: SK-OV-3 ovarian
OVCAR-3 ovarian = tested on: OVCAR-3 ovarian
OVCAR-4 ovarian = tested on: OVCAR-4 ovarian
NCI-H522 lung = tested on: NCI-H522 lung
PC-3 prostate = tested on: PC-3 prostate
HL-60(TB) leukemia = tested on: HL-60(TB) leukemia
RPMI-8226 leukemia = tested on: RPMI-8226 leukemia
U251 CNS = tested on: U251 CNS
SF-539 CNS = tested on: SF-539 CNS
T-47D breast = tested on: T-47D breast
A549 NSCLC = tested on: A549 NSCLC
DU-145 prostate = tested on: DU-145 prostate
UO-31 renal = tested on: UO-31 renal
HS 578T breast = tested on: HS 578T breast
CCRF-CEM leukemia = tested on: CCRF-CEM leukemia
NCI/ADR-RES ovarian = tested on: NCI/ADR-RES ovarian
SK-MEL-28 melanoma = tested on: SK-MEL-28 melanoma
OVCAR-8 ovarian = tested on: OVCAR-8 ovarian
TK-10 renal = tested on: TK-10 renal
SR leukemia = tested on: SR leukemia
SW-620 colon = tested on: SW-620 colon
A498 renal = tested on: A498 renal
ACHN renal = tested on: ACHN renal
COLO 205 colon = tested on: COLO 205 colon
SF-295 CNS = tested on: SF-295 CNS

Measured: TGI

Oc1c(C2=N[C@H]3CCCC[C@@H]3N2)ccc2ccccc12
> 96.4 µM: SNB-19 CNS
> 93.9 µM: NCI/ADR-RES ovarian
> 21.8 µM: A549 NSCLC
> 80.6 µM: HOP-62 NSCLC
not listed: SF-295 CNS
> 100 µM: all other assays above

COc1ccc2[nH]c3c(c2c1)COc1ccccc1C3=O
> 100 µM: all assays above

Reference: PubChem BioAssay (NCI)
